The values below come from patent US20240216385A1, “A PI3K-DELTA INHIBITOR FOR THE TREATMENT OF PANCREATIC CANCER” (IONCTURA SA, priority 2021, published 2024).

In assay [1] the test system is KPC/WCB3 cells orthotopically injected into the pancreas. Put plainly: KPC/WCB3 orthotopic mouse model of pancreatic cancer, histological analysis of pancreata. Type of assay: in vivo. The following applies: orthotopic KPC/WCB3, C57BL/6J mice; treatment from day 7 for one month; FIG. 4. The text has this:
This model is constituted by the implantation of KPC/WBC3 cells originating from a spontaneous developed donor tumour in KPC mice into the pancreas of male wildtype C57BL/6J recipient mice. The pathology and tumour microenvironment in this model closely resemble human pancreatic cancer.
Control animals received normal drinking water and standard chow. One month after initiation treatment was stopped and mice were euthanized. Pancreata were harvested and analysed by histological analysis for level of fibrosis, number of Tregs and number of proliferating CAFs.

For assay [2], the system named is KPC mouse model of pancreatic ductal adenocarcinoma (PDAC). Kind of assay: KPC mouse model of pancreatic cancer, histological analysis of pancreata. The following applies: KPC mice treated from 5 to 11 weeks of age; Compound 2 in mixed chow; FIG. 1. Type of assay: in vivo. The text has this:
Control animals received normal drinking water and standard chow.

Assay [3] has as its system pancreatic cancer. The following applies: pancreatic cancer patients, standard treatment; cited from earlier work.

On to `C[C@H](NC(=O)CCc1nc2cccnc2n1Cc1ccc(OC(F)(F)F)cc1)c1ccc(Cl)cc1` [Compound 2, N-[(S)-1-(4-chloro-phenyl)-ethyl]-3-[3-(4-trifluoromethoxy-benzyl)-3H-imidazo[4,5-b]pyridin-2-yl]-propionamide], for which, in assay [1], the Tregs entry is “significantly reduces”, the “proliferating CAFs” value is recorded as “significantly reduces” and the tumour fibrosis score entry is on record as “limited effect”. Moreover, in assay [2], the “number of low-grade (PanIN-1 and PanIN-2) lesions” value is “reduces”; the tumour burden result is on record as “without having significant effects”.
With `Nc1ccn([C@@H]2O[C@H](CO)[C@@H](O)C2(F)F)c(=O)n1` [gemcitabine], in assay [3], the “average median overall survival” value is given as 6 months and the response rate is 5-10%.
